# Source: patent publication US4741899A, “Process for arresting the proliferation of organisms that convert axillary secretions to malodorous materials” (Bristol-Myers Company, priority 1983, dated 1988)
# Structures can show the parent of a compound that is named as a salt.
# Experiments:
# [1] = system: Staph (Axilla); assay: In vitro minimum inhibitory (bactericidal) concentration, Staph (Axilla); type: cell-based, staphylococci; details: 24 hrs. at 35° C., subculture further 24 hrs.; liquid culture medium
# Experimental: (§1) To test the activity of the compounds employed in the present invention in arresting the proliferation of axillary organisms (e.g. corynebacteria and staphylococci) the following in vitro study was carried out:
# (§2) Aqueous solutions (or suspensions) were prepared for each test substance. Serial two-fold dilutions of the above were then made in liquid culture medium. Each tube (10 ml of liquid) in the dilution series was inoculated with 0.2 ml of a 1:500 dilution of 24 hr. culture of bacteria. After 24 hrs. at 35° C., tubes showing turbidity (growth) were noted. All non-turbid dilutions were subcultured to liquid growth medium and incubated an additional 24 hrs. at 35° C. The lowest concentration of substance which yielded no growth upon subculture was noted as the minimum inhibitory (bactericidal) concentration (=MIC).
# (§3) The numbers appearing in columns 2 and 3 give the minimum inhibitory concentration in percent (MIC %) for the materials tested i.e. the minimum concentration in percent of the agent tested which will inhibit the proliferation of the test organisms. The entries in the last column are judgments with respect to the activity of the agent tested.
# [2] = system: Diphth (Axilla); assay: In vitro minimum inhibitory (bactericidal) concentration, Diphth (Axilla); type: cell-based, aerobic diphtheroids (corynebacteria); details: 24 hrs. at 35° C., subculture further 24 hrs.; liquid culture medium
# Experimental: as §1, §2, §3
# [3] = system: axillary organisms (e.g. corynebacteria and staphylococci); assay: In vitro Studies - Summary, judgment of activity against axillary organisms; type: cell-based; details: Staph and Diphth (Axilla)
# Experimental: as §1, §2, §3
SMILES,"MIC (%) - cidal, Staph (Axilla) [1]","MIC (%) - cidal, Diphth (Axilla) [2]",Comments (judgment with respect to the activity of the agent tested) [3]
c1ccc2c(CC3=NCCN3)cccc2c1 [Naphazoline HCl],0.31%,0.31%,–
CN1CCC2=C(C1)C(c1ccccc1)c1ccccc12 (stereo not drawn) [Phenindamine tartrate],0.04%,0.08%,Good Activity
CC(CNC1CCCCC1)OC(=O)c1ccccc1 (stereo not drawn) [Hexylcaine HCl],0.16%,0.16%,–
CN(C)CCN(Cc1ccccc1)c1ccccn1 [Tripelennamine HCl],0.63%,0.31%,–
CCCCNc1ccc(C(=O)OCCN(C)C)cc1 [Tetracaine HCl],0.08%,0.08%,–
Cc1cc(C(C)(C)C)cc(C)c1CC1=NCCN1 [Xylometazoline HCl],0.08%,0.04%,–
COc1ccc(CN(CCN(C)C)c2ccccn2)cc1 [Pyrilamine maleate],0.63%,0.63%,–
